Reference: patent US10280169B2, “Biaryl bruton's tyrosine kinase inhibitors” (BIOGEN MA INC., priority 2013, dated 2019)

target: T1, BTK (Homo sapiens, UniProt Q06187); test: In vitro BTK kinase assay: BTK-POLYGAT-LS assay; format: biochemical; settings: 10 uM ATP, read-out: IC50 (10 uMATP)
T1 construct: purchased Upstate 14-552
T1 sequence (Q06187 whole entry): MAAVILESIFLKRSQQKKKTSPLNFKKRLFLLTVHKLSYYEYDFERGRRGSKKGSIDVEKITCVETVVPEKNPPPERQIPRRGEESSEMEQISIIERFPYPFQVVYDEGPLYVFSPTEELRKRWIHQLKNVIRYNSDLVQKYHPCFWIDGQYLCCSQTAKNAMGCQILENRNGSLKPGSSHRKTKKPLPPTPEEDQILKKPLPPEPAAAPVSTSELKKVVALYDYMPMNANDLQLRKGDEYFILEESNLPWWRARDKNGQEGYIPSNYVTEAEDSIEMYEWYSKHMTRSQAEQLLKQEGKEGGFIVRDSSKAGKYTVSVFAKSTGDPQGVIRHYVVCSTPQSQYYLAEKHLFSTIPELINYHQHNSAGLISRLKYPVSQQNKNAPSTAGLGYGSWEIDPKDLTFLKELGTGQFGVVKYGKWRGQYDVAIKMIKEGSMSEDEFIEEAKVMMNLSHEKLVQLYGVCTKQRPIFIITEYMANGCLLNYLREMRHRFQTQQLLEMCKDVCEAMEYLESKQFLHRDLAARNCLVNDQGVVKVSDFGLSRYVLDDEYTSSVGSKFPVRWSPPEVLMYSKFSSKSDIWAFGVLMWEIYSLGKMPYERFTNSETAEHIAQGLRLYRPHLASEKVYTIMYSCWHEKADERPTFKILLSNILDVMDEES

Structure (SMILES) | IC50 [nM]
O=C(NC1CCCc2cc(-c3ncnc4[nH]ncc34)ccc21)c1ccc(Cl)c(Cl)c1 (centres unmarked) [Example I-93, N-(6-(1H-pyrazolo[3,4-d]pyrimidin-4-yl)-1,2,3,4-tetrahydronaphthalen-1-yl)-3,4-dichlorobenzamide] | 10 to 99
Cc1cc(-c2ncnc3cc(C4CCS(=O)(=O)CC4)n(C)c23)ccc1CNC(=O)c1cnc(C(C)(C)C)s1 [Example I-24, 2-(tert-butyl)-N-(4-(6-(1,1-dioxidotetrahydro-2H-thiopyran-4-yl)-5-methyl-5H-pyrrolo[3,2-d]pyrimidin-4-yl)-2-methylbenzyl)thiazole-5-carboxamide] | 10 to 99
CC(C)(C)c1ccc(C(=O)NC2CCCc3cc(-c4ncnc5[nH]ncc45)ccc32)cn1 (centres unmarked) [Example I-142, N-(6-(1H-pyrazolo[3,4-d]pyrimidin-4-yl)-1,2,3,4-tetrahydronaphthalen-1-yl)-6-(tert-butyl)nicotinamide] | 100 to 999
Cc1cc(-c2ncnc3[nH]ncc23)ccc1C(C)NC(=O)c1cc2c(s1)CCCC2 (centres unmarked) [Example I-121, N-(1-(2-methyl-4-(1H-pyrazolo[3,4-d]pyrimidin-4-yl)phenyl)ethyl)-4,5,6,7-tetrahydrobenzo[b]thiophene-2-carboxamide] | < 10
CC1(C)CCc2nc(C(=O)NC3CCCc4cc(-c5ncnc6[nH]ncc56)ccc43)sc2C1 (centres unmarked) [Example I-136, N-(6-(1H-pyrazolo[3,4-d]pyrimidin-4-yl)-1,2,3,4-tetrahydronaphthalen-1-yl)-6,6-dimethyl-4,5,6,7-tetrahydrobenzo[d]thiazole-2-carboxamide] | 10 to 99
CC(NC(=O)c1cnc(C(C)(C)C)s1)c1ccc(-c2ncnc3cc(-c4cnn(C)c4)[nH]c23)cc1 (centres unmarked) [Example I-114, 2-(tert-butyl)-N-(1-(4.-(6-(1-methyl-1H-pyrazol-4-yl)-5H-pyrrolo[3,2-d]pyrimidin-4-yl)phenyl)ethyl)thiazole-5-carboxamide] | < 10
Cc1cc(-c2ncnc3c2cc(-c2cn(C)nc2C)n3C)ccc1CNC(=O)c1cnc(C(C)(C)C)s1 [Example I-28, 2-(tert-butyl)-N-(4-(6-(1,3-dimethyl-1H-pyrazol-4-yl)-7-methyl-7H-pyrrolo[2,3-d]pyrimidin-4-yl)-2-methylbenzyl)thiazole-5-carboxamide] | 10 to 99
Cc1cc(-c2ncnc3nc(C4CCN(C)CC4)[nH]c23)ccc1CNC(=O)c1cnc(C(C)(C)C)s1 [Example I-54, 2-(tert-butyl)-N-(2-methyl-4-(8-(1-methylpiperidin-4-yl)-7H-purin-6-yl)benzyl)thiazole-5-carboxamide] | 100 to 999
CC(C)(C)c1ccc(C(=O)NCc2ccc(-c3ncnc4[nH]c(-c5ccc(C(=O)N6CCOCC6)cc5)cc34)cc2)cc1 [Example I-111, 4-(tert-butyl)-N-(4-(6-(4-(morpholine-4-carbonyl)phenyl)-7H-pyrrolo[2,3-d]pyrimidin-4-yl)benzyl)benzamide] | < 10
Cn1cc(-c2cc3c(-c4ccc5c(c4)CCCCC5NC(=O)c4cnn(C(C)(C)C)c4)ncnc3[nH]2)cn1 (centres unmarked) [Example I-160, 1-(tert-butyl)-N-(2-(6-(1-methyl-1H-pyrazol-4-yl)-7H-pyrrolo[2,3-d]pyrimidin-4-yl)-6,7,8,9-tetrahydro-5H-benzo[7]annulen-5-yl)-1H-pyrazole-4-carboxamide] | < 10
Cn1cc(-c2cc3c(-c4ccc5c(c4)CCCC5NC(=O)c4cnn(C(C)(C)C)c4)ncnc3[nH]2)cn1 (centres unmarked) [Example I-156, 1-(tert-butyl)-N-(6-(6-(1-methyl-1H-pyrazol-4-yl)-7H-pyrrolo[2,3-d]pyrimidin-4-yl)-1,2,3,4-tetrahydronaphthalen-1-yl)-1H-pyrazole-4-carboxamide] | < 10
CC(C)(C)c1ncc(C(=O)NC2CCCc3cc(-c4ncnc5cc[nH]c45)ccc32)s1 (centres unmarked) [Example I-129, N-(6-(5H-pyrrolo[3,2-d]pyrimidin-4-yl)-1,2,3,4-tetrahydronaphthalen-1-yl)-2-(tert-butyl)thiazole-5-carboxamide] | 10 to 99
O=C(NC1CCCc2cc(-c3ncnc4[nH]ncc34)ccc21)c1cc2ccccc2s1 (centres unmarked) [Example I-120, N-(6-(1H-pyrazolo[3,4-d]pyrimidin-4-yl)-1,2,3,4-tetrahydronaphthalen-1-yl)benzo[b]thiophene-2-carboxamide] | < 10
O=C(NCc1ccc(-c2ncnc3[nH]ccc23)cc1)c1ccc(C(F)(F)F)cn1 [Compound I-146] | 100 to 999
CC(C)(C)c1ncc(C(=O)N[C@@H]2CCCc3cc(-c4ccnc5[nH]ncc45)cnc32)s1 [Example I-144, (R)—N-(3-(1H-pyrazolo[3,4-b]pyridin-4-yl)-5,6,7,8-tetrahydroquinolin-8-yl)-2-(tert-butyl)thiazole-5-carboxamide] | 100 to 999
O=C(NC1CCCc2cc(-c3ncnc4[nH]ccc34)ccc21)c1nc2c(s1)CCCC2 (centres unmarked) [Example I-17, N-(6-(7H-pyrrolo[2,3-d]pyrimidin-4-yl)-1,2,3,4-tetrahydronaphthalen-1-yl)-4,5,6,7-tetrahydrobenzo[d]thiazole-2-carboxamide] | 10 to 99
CC(C)(C)c1ccc(C(=O)NCc2ccc(-c3ncnc4[nH]ccc34)cc2C(N)=O)cc1 [Example I-9, 4-(tert-butyl)-N-(2-carbamoyl-4-(7H-pyrrolo[2,3-d]pyrimidin-4-yl)benzyl)benzamide] | 1000 to 10000
Cc1cc(-c2ncnc3[nH]ncc23)cnc1CNC(=O)c1cc2c(s1)CCCC2 [Example I-125, N-((3-methyl-5-(1H-pyrazolo[3,4-d]pyrimidin-4-yl)pyridin-2-yl)methyl)-4,5,6,7-tetrahydrobenzo[b]thiophene-2-carboxamide] | 10 to 99
CC(C)(C)c1ccc(C(=O)NCc2cc(F)c(-c3ncnc4[nH]ccc34)cc2Cl)nc1 [Example I-13, 5-(tert-butyl)-N-(2-chloro-5-fluoro-4-(7H-pyrrolo[2,3-d]pyrimidin-4-yl)benzyl)picolinamide] | 10 to 99
CCc1cc(-c2ncnc3[nH]ccc23)ccc1CNC(=O)c1ccc(C(C)(C)C)cc1 [Example I-10, 4-(tert-butyl)-N-(2-ethyl-4-(7H-pyrrolo[2,3-d]pyrimidin-4-yl)benzyl)benzamide] | 10 to 99
CC(C)(C)c1ncc(C(=O)NC(CO)c2ccc(-c3ncnc4cc(C5=CCS(=O)(=O)CC5)[nH]c34)cc2)s1 (centres unmarked) [Example I-29, 2-(tert-butyl)-N-(1-(4-(6-(1,1-dioxido-3,6-dihydro-2H-thiopyran-4-yl)-5H-pyrrolo[3,2-d]pyrimidin-4-yl)phenyl)-2-hydroxyethyl)thiazole-5-carboxamide] | 10 to 99
CC(NC(=O)c1nc2c(s1)CCCC2)c1ccc(-c2ncnc3[nH]ncc23)cc1C(F)(F)F (centres unmarked) [Example I-145, N-(1-(4-(1H-pyrazolo[3,4-d]pyrimidin-4-yl)-2-(trifluoromethyl)phenyl)ethyl)-4,5,6,7-tetrahydrobenzo[d]thiazole-2-carboxamide] | 100 to 999
CC(NC(=O)c1cc2c(s1)CCCC2)c1ccc(-c2ncnc3[nH]ncc23)cc1C(F)(F)F (centres unmarked) [Example I-135, N-(1-(4-(1H-pyrazolo[3,4-d]pyrimidin-4-yl)-2-(trifluoromethyl)phenyl)ethyl)-4,5,6,7-tetrahydrobenzo[b]thiophene-2-carboxamide] | 10 to 99
